pIC50: −log10 of the molar value. The source made the active and inactive calls. No cut-off for these calls is given here.

Data set [1] deals with T1, Interstitial collagenase (Homo sapiens) (UniProt P03956).
T1 sequence (whole entry): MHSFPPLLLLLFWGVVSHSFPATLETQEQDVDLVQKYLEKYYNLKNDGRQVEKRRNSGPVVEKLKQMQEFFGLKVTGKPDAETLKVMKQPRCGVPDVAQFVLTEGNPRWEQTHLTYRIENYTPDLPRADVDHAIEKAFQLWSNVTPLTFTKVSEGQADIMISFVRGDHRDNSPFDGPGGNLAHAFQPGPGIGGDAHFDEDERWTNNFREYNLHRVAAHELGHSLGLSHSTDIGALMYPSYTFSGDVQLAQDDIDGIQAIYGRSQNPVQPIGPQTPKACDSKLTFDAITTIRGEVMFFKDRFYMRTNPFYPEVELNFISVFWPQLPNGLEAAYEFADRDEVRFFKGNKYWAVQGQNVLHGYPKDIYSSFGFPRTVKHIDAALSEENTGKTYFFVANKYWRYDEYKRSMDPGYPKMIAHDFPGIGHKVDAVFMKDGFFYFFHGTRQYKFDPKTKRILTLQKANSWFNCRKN
The experiment in a line: Inhibition of MMP1 in human U2OS cells at 1 umol/L by peptide microarray-based fluorescence assay. Type of data set: cell-based. Conditions: dose 1.0 µmol/L.

Data set [2] is described as follows: Toxicity in human MCF7 cells assessed as cell viability at 2.5 umol/L incubated for 24 hrs by MTT assay relative to control. The format is cell-based. Conditions: dose 2.5 µmol/L, read-out: Activity.
The target of data set [3] is T2, Collagenase 3 (Homo sapiens, UniProt P45452). Put plainly: Inhibition of MMP13 in human U2OS cells by peptide microarray-based fluorescence assay. The format is cell-based.
A short description of data set [4]: Toxicity in human U2OS cells assessed as cell viability at 2.5 umol/L incubated for 24 hrs by MTT assay relative to control. The format is cell-based. The note with it: dose 2.5 µmol/L, read-out: Activity. In general terms: Tetrazolium dyes change colour on reduction, which living cells bring about.
Data set [5] has as its system U2OS. The experiment in a line: Antitumor activity against human U2OS cells xenografted in NOD/SCID mouse assessed as inhibition of tumor growth at 18 ug, iv dosed once every 2 days for 6 days successively relative to control. Type of data set: functional. Conditions: dose 18 µg, time 6 day. A general note: A xenograft is tissue or cells of one species grown in another, often human tumour cells in immunodeficient mice.

Data set [6] in a line: Toxicity in Kunming mouse assessed as effect on body weight changes measured after 14 days. The note with it: in vivo, 336 h, time 14 day.
Data set [7] has as its target T3, Matrix metalloproteinase-9 (Homo sapiens, UniProt P14780). The experiment in a line: Inhibition of MMP9 in human U2OS cells at 5 umol/L by peptide microarray-based fluorescence assay. The note with it: dose 5.0 µmol/L. Type of data set: cell-based.
Data set [8] concerns the target T4, 72 kDa type IV collagenase (Homo sapiens, UniProt P08253). Put plainly: Inhibition of MMP2 in human U2OS cells at 5 umol/L by peptide microarray-based fluorescence assay. The format is cell-based. The note with it: dose 5.0 µmol/L.
Target sequence in this assay (P08253 110-660 limits assumed): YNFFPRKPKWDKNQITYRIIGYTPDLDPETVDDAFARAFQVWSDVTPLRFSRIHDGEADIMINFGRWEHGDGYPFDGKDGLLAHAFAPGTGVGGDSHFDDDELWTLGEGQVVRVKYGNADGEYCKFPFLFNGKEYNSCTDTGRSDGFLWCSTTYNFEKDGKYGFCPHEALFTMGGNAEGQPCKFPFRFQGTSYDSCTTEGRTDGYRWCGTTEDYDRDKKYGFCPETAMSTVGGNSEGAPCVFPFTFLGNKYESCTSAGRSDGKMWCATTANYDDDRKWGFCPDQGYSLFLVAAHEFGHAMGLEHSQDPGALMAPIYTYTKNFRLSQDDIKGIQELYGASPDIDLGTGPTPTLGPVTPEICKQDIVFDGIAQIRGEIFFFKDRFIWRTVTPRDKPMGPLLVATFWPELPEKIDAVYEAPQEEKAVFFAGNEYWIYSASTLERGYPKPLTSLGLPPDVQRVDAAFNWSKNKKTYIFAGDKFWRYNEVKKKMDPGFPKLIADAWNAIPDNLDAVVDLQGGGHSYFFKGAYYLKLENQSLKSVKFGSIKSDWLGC
Data set [9] deals with T4, 72 kDa type IV collagenase. The experiment in a line: Inhibition of MMP2 in human U2OS cells by peptide microarray-based fluorescence assay. The format is cell-based.
Target sequence in this assay (P08253 whole entry): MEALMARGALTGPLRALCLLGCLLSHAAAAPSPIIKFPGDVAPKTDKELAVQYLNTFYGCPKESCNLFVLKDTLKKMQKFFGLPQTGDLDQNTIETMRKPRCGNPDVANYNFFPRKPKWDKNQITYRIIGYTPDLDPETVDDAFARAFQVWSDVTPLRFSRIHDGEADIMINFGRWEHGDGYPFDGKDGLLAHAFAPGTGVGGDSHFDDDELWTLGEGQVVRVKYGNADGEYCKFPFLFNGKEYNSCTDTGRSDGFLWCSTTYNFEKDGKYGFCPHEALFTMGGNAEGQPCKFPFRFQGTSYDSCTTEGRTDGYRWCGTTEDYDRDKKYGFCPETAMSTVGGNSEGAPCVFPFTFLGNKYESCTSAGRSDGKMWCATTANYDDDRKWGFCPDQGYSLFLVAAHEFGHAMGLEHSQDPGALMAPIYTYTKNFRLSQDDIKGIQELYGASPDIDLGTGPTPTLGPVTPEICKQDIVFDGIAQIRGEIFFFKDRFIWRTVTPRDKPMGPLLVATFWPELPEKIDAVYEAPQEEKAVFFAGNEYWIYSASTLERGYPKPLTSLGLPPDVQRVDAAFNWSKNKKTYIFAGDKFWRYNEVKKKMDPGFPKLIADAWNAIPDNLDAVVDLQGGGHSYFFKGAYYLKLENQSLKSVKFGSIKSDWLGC
Data set [10] can be described thus: Toxicity in Kunming mouse assessed as effect on blood components measured after 14 days. The note with it: in vivo, 336 h, time 14 day.
For data set [11], the target named is T5, Stromelysin-1 (Homo sapiens, UniProt P08254). Put plainly: Inhibition of MMP3 in human U2OS cells at 1 umol/L by peptide microarray-based fluorescence assay. Type of data set: cell-based. The note with it: dose 1.0 µmol/L.
Target sequence in this assay (P08254 100-477 limits assumed): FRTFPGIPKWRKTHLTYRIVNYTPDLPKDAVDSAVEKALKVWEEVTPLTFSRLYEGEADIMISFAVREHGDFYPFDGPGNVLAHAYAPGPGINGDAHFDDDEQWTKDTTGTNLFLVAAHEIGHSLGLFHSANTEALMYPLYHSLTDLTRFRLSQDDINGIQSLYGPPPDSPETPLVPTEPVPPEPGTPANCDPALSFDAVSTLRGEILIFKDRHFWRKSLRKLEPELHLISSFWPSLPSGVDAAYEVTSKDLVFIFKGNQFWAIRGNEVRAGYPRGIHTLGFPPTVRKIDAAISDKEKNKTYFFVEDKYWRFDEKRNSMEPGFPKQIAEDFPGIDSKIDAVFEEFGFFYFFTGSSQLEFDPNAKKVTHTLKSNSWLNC
The nature of data set [12]: Toxicity in human HEK293T cells assessed as cell viability at 2.5 umol/L incubated for 24 hrs by MTT assay relative to control. The format is cell-based, HEK-293T. Conditions: dose 2.5 µmol/L, read-out: Activity.
Data set [13] addresses T2, Collagenase 3. Put plainly: Inhibition of MMP13 in human U2OS cells at 1 umol/L by peptide microarray-based fluorescence assay. The format is cell-based. The note with it: dose 1.0 µmol/L.
Data set [14] can be described thus: Toxicity in human NCM460 cells assessed as cell viability at 2.5 umol/L incubated for 24 hrs by MTT assay relative to control. The format is cell-based. Conditions: dose 2.5 µmol/L, read-out: Activity.
For data set [15], the target named is T2, Collagenase 3. The experiment in a line: Inhibition of MMP13 in human U2OS cells at 5 umol/L by peptide microarray-based fluorescence assay. The format is cell-based. The note with it: dose 5.0 µmol/L.
Data set [16] concerns U2OS. The experiment in a line: Antitumor activity against human U2OS cells xenografted in NOD/SCID mouse assessed as inhibition of growth of both primary and metastatic tumors at 18 ug, iv dosed once every 2 days for 6 days successively relative to control. Type of data set: functional, organism-based. Conditions: dose 18.0 µg, time 6.0 day.
Data set [17] can be described thus: Toxicity in human MDA-MB-231 cells assessed as cell viability at 2.5 umol/L incubated for 24 hrs by MTT assay relative to control. Type of data set: cell-based. The note with it: dose 2.5 µmol/L, read-out: Activity.
Data set [18] is described as follows: Toxicity in Kunming mouse assessed as induction of adverse effect or tissue damage in major organs measured after 14 days. The note with it: in vivo, 336 h, time 14 day.
The target of data set [19] is T5, Stromelysin-1. Put plainly: Inhibition of MMP3 in human U2OS cells at 5 umol/L by peptide microarray-based fluorescence assay. Type of data set: cell-based. Conditions: dose 5.0 µmol/L.
Target sequence in this assay (P08254 100-477 limits assumed): as above
In data set [20] the target is T1, Interstitial collagenase (Homo sapiens). Put plainly: Inhibition of MMP1 in human U2OS cells at 5 umol/L by peptide microarray-based fluorescence assay. Type of data set: cell-based. The note with it: dose 5.0 µmol/L.
Data set [21] has as its system U2OS. Put plainly: Inhibition of cell migration of human U2OS cells at 2.5 umol/L incubated for 24 hrs by would healing assay. The note with it: dose 2.5 µmol/L. Type of data set: functional, cell-based.
Another data set addresses T6, Interstitial collagenase (Homo sapiens, UniProt P03956).
T6 sequence (P03956 whole entry): T1 sequence (whole entry)
The experiment in a line: Inhibition of MMP1 in human U2OS cells by peptide microarray-based fluorescence assay. The format is cell-based.

Data set [22] concerns the target T3, Matrix metalloproteinase-9. Put plainly: Inhibition of MMP9 in human U2OS cells by peptide microarray-based fluorescence assay. Type of data set: cell-based.
Data set [23] is described as follows: Toxicity in human HCT-116 cells assessed as cell viability at 2.5 umol/L incubated for 24 hrs by MTT assay relative to control. The note with it: dose 2.5 µmol/L, read-out: Activity. The format is cell-based.
Data set [24] deals with U2OS. Put plainly: Antitumor activity against human U2OS cells xenografted in NOD/SCID mouse assessed as inhibition of distant organ metastasis at 18 ug, iv dosed once every 2 days for 6 days successively relative to control. Type of data set: functional, organism-based. The note with it: dose 18.0 µg, time 6.0 day.
Another data set concerns the target T7, Matrilysin (Homo sapiens, UniProt P09237).
T7 sequence (P09237 whole entry): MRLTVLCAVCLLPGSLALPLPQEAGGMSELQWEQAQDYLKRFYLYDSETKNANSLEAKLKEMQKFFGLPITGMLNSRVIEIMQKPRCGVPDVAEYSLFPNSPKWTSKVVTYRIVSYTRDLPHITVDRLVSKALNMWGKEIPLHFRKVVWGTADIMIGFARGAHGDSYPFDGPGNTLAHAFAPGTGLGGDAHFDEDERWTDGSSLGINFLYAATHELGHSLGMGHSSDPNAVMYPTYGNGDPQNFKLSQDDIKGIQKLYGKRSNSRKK
Put plainly: Inhibition of MMP7 in human U2OS cells by peptide microarray-based fluorescence assay. Type of data set: cell-based.

Data set [25] can be described thus: Toxicity in human HL7702 cells assessed as cell viability at 2.5 umol/L incubated for 24 hrs by MTT assay relative to control. The note with it: dose 2.5 µmol/L, read-out: Activity. The format is cell-based, L02.
In data set [26] the target is T4, 72 kDa type IV collagenase. The experiment in a line: Inhibition of MMP2 in human U2OS cells at 1 umol/L by peptide microarray-based fluorescence assay. The format is cell-based. Conditions: dose 1.0 µmol/L.
Target sequence in this assay (P08253 110-660 limits assumed): as the sequence (P08253 110-660 limits assumed) above
For data set [27], the target named is T8, Matrilysin (Homo sapiens) (UniProt P09237).
T8 sequence (whole entry): T7 sequence (P09237 whole entry)
Put plainly: Inhibition of MMP7 in human U2OS cells at 1 umol/L by peptide microarray-based fluorescence assay. The format is cell-based. The note with it: dose 1.0 µmol/L.

Data set [28] concerns the target T3, Matrix metalloproteinase-9. The experiment in a line: Inhibition of MMP9 in human U2OS cells at 1 umol/L by peptide microarray-based fluorescence assay. The format is cell-based. Conditions: dose 1.0 µmol/L.
The subject of data set [29] is U2OS. Put plainly: Antitumor activity against human U2OS cells xenografted in NOD/SCID mouse assessed as inhibition of tumor growth at 100 mg/kg, po dosed once every 2 days for 2 weeks relative to control. Type of data set: functional. Conditions: 1008 h, time 6 weeks, read-out: TGI.
Data set [30] deals with U2OS. The experiment in a line: Antitumor activity against human U2OS cells xenografted in NOD/SCID mouse assessed as time duration with 100% survival with at 18 ug, iv dosed once every 2 days for 6 days successively relative to control. Type of data set: functional. Conditions: dose 18 µg, time 6 day.
In data set [31] the target is T5, Stromelysin-1. The experiment in a line: Inhibition of MMP3 in human U2OS cells by peptide microarray-based fluorescence assay. The format is cell-based.
Target sequence in this assay (P08254 whole entry): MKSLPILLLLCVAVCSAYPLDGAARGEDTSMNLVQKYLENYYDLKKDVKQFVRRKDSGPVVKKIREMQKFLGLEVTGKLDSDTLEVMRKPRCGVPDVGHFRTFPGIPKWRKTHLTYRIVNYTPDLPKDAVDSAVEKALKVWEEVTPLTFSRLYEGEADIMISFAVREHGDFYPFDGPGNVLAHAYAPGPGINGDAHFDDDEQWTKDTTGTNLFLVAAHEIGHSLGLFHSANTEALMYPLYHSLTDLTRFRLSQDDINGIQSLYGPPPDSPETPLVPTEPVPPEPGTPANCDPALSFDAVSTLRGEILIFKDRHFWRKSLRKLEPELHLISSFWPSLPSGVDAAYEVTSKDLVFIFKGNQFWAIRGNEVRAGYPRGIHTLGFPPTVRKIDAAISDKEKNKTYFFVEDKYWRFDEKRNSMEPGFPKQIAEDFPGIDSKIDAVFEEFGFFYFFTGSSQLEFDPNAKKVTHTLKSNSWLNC
Data set [32] addresses T8, Matrilysin (Homo sapiens). The experiment in a line: Inhibition of MMP7 in human U2OS cells at 5 umol/L by peptide microarray-based fluorescence assay. The format is cell-based. Conditions: dose 5.0 µmol/L.

T3 sequence (P14780 whole entry): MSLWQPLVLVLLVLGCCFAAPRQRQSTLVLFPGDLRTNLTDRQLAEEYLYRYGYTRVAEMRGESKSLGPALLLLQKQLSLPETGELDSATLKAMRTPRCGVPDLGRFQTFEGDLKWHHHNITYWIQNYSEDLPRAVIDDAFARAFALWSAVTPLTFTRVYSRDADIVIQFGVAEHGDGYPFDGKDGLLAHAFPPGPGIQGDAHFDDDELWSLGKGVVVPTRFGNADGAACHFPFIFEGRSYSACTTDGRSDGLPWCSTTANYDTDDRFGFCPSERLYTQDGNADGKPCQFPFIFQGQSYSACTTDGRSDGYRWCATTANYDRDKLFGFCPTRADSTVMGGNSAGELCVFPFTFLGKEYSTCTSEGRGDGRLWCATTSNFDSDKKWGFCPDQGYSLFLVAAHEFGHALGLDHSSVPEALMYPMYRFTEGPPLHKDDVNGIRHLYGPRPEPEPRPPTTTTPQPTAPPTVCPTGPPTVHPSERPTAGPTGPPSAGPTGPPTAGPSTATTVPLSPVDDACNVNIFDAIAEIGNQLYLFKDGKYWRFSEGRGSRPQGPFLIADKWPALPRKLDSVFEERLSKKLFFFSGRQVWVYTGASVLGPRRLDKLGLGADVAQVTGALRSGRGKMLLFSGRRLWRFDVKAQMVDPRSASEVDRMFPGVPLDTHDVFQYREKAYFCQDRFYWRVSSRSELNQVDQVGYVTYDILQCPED

Consider `CNC(=O)[C@@H](NC(=O)[C@H](CC(C)C)[C@H](O)C(=O)NO)C(C)(C)C`, for which, in data set [1], the inhibition (usually the share of the control response that was lost under treatment) was “Active”.

Consider `O=C(/C=C/c1ccc(O)cc1)c1ccc(O)cc1O` [ISOLIQUIRITIGENIN], for which the viability at 24 h, 2.5 µM in [2], in data set [4], in [12], in [14], in data set [17] and in data set [23] was over 90% throughout. For the same compound, the viability at 24 h, 2.5 µM in data set [25] was over 90%. In addition, the pIC50 (as a rule, the IC50 on a negative log10 scale, so that one unit is a factor of ten) against Collagenase 3 [3] was 7.85; in [9] it was 8.00; at Interstitial collagenase it was 7.80; in data set [22] it was 8.00; at Matrilysin, 8.10; against Stromelysin-1 [31] it was 7.09. In addition, in the data set with U2OS [5], the TGI (usually how far tumour growth fell short of that in controls) was determined as 80%. The Activity entry in data set [6], in [10] and in [18] was “Non-Toxic” throughout. The inhibition (in [7]; in [8]; against Collagenase 3 [15]; against Stromelysin-1 [19]; in data set [20]; in [32]) was over 50% throughout. Also, the inhibition result (at Stromelysin-1 [11]; on Collagenase 3 [13]; in the data set on U2OS [16]; in the data set with U2OS [21]; with U2OS [24]; in data set [1]) was “Active” throughout. The inhibition result in [26], in data set [27] and in data set [28] was “Active” throughout. Besides, the inhibition in vivo at 100 mg/kg with U2OS [29] turned out to be 72%. The Survival in the data set with U2OS [30] amounted to 70 days.

Take `O=C(O)[C@H]1O[C@@H](Oc2cc3oc(-c4ccc(O)cc4)cc(=O)c3c(O)c2O)[C@H](O)[C@@H](O)[C@@H]1O`: the inhibition (in data set [7]; in [8]; against Collagenase 3 [15]; in data set [20]; in [32]) was over 50% in each case.

For the compound `C=CC(C)(C)c1cc(/C=C/C(=O)c2ccc(O)cc2)c(OC)cc1O`, in data set [20], the inhibition is over 50%.

In turn, `COc1ccc(-c2coc3cc(O[C@@H]4O[C@H](CO)[C@@H](O)[C@H](O)[C@H]4O)ccc3c2=O)cc1` gave an inhibition in data set [7] of over 50%.

Source of the values: ChEMBL document CHEMBL5126637, “Discovery of Phenolic Matrix Metalloproteinase Inhibitors by Peptide Microarray for Osteosarcoma Treatment” (J Nat Prod, 2022).
